Data taken from patent US12319681B2, “Tripartite androgen receptor eliminators, methods and uses thereof” (SPG Therapeutics, Inc., priority 2017, dated 2025).
Where two headings read alike, the source gives them in different places.

What was measured:
[1] = Solubility screening tests in 8 solvent systems; assay type: physicochemical
Method: Solubility screening tests were performed in 8 solvent systems: (1) Transcutol: Ethanol: Isopropyl myristate (IPM) 2:3:5 (v:v); (2) Transcutol: Ethanol 3:7 (v:v); (3) Ethanol: Propylene Glycol 1:1 (v:v); (4) Ethanol:H2O 7:3 (v:v); (5) IPM; (6) Ethanol:Tween 80: Cetyl Alcohol 90:5:5 (w:w); (7) CCT: Tween 80: Cetyl Alcohol 90:5:5 (w:w); and (8) CCT: Isopropanol 1:1 (v: v). […] One objective was to identify solvent systems for solution formulation at targeted API concentration of 1% by weight. Another objective was to identify solvents that are potentially good penetration enhancers and yet clinically viable. Since cetyl alcohol is solid, the solvent systems with them were prepared in weight ratios.

[2] = Human Skin Penetration Assays (Franz-cell, HTS station); assay type: in vitro ADME; conditions: 8 hours of exposure
Method: To examine the penetration ability of SPG-003 formulation, two different assays were conducted. The SPG-003 formulation was prepared by adding SPG-003 (final concentration 1.0% by weight) to a mixture comprising 30% denatured alcohol. 49% IPM, 20% Transcutol and sonicaing this mixture until the compound was dissolved.
Human cadaver skin tissue was purchased from a tissue bank in the U.S. Two lots of the dermatomed skin tissue were used. Donor demographics: tissue 08033 (average thickness: 397 μm): […], […], […], and anatomical site=abdomen; tissue 08696 (average thickness; 1,040 μm): […], […], […], and anatomical site=abdomen. The thickness was measured using a digital snap gage. Duplicate for each donor (N=2). The tissue was received in dry ice packaging. It was stored at −20° C. until use.
After passing initial visual inspection, barrier integrity of the skin tissue was evaluated using transepidermal electrical resistance measurement (TEER measurement). […] Prior to the skin absorption and penetration study, electrical resistance value for each lot of human skin tissue was evaluated. […] Transepidermal electrical resistance value (TEER measurement, Z value) was measured. […] It was determined that the threshold TEER value was 6.0 KOhms for donor 08033 and 10 KOhms for donor 08696. […]
The data collection time point was 8 hours. […] The extracts were collected and ready for analysis. […]

[3] = tested on: MDA-kb2 mammary gland breast cancer cell line; conditions: human, 24 h
Method: For the MDA-kb2 assay, MDA-kb2 mammary gland breast cancer cell line was maintained in L-15 media (Gibco) supplemented with 10% FBS, 100 U/mL penicillin, 100 μg/mL streptomycin, and 0.25 μg/mL amphotericin B at 37° C., without CO2. For experiments, cells were plated at 1.0×10^4 cells (50% confluence) per well in 100 μL of medium in 96-well plates. When cells were attached (after 6 hours), medium was removed and replaced with dosing medium containing 10% charcoal stripped FBS.
A 5α-Androstan-17β-ol-3-one (DHT) stock solution was prepared at 1,000× in ethanol. Each ARE tested was prepared in DMSO. Dosing medium was prepared at the time of treatment by serial diluting stock solution into medium. Ethanol concentrations in media never exceeded 0.1%. […] Negative control wells contained 100 μL medium/well with 1 μL of ethanol/mL of medium and an appropriate amount of DMSO. Each plate also contained 1.0 nM DHT with an ARE or without an ARE as a positive control. Cells were incubated 24 hours at 37° C. without CO2.
To assess for cell viability, cells were first visually examined under a phase-contrast microscope to record cell confluence, morphological changes, and presence of drug crystallization as well as to observe signs of cytotoxity such as, e.g., detachment, vacuolization, membrane degradation, or lack of phase brightness. After microscopic inspection, a Trypan Blue exclusion assay was performed to assess cell viability and cell number for each well. Each well was washed with 0.5 mL volume of PBS. 30 µL of Trypan Blue was added to each well for 5-10 minutes. Total cell number and total viable cell number will be counted from 1 number of fields per well, in triplicate.

[4] = in vitro; conditions: human
Method: For the Keratinocyte assay, normal Human Adult Primary Epidermal Keratinocyte cell line (ATCC PCS-200-011) was maintained in EPIUFE® Medium, with 60 μM calcium (Thermo MEPISOOCA) supplemented with Human Keratinocyte Growth Supplement, 100 U/mL penicillin, and 100 μg/mL streptomycin at 37° C. with 5% C02. For experiments, cells were seeded at 70% confluence per well in 100 μL of medium in 96-well plates. Reverse transfection was done on the cells using Lipofectamine 3000 (Life Technologies) with plasmids according to manufacturer's instructions. Briefly, 0.3 μL transfection reagent per 100 ng DNA were incubated with P3000 reagent and Opti-Mem prior to addition of cells. After 16 hours, medium was removed and replaced with dosing medium.
Each ARE tested was prepared in DMSO. Dosing medium was prepared at the time of treatment by serial diluting stock solution into medium. Ethanol concentrations in media never exceeded 0.1%. […] Negative control wells contained 100 L medium/well with 1 μL of ethanol/mL of medium and an appropriate amount of DMSO. […] Cells were incubated 72 hours at 37° C. without CO2.

## CC12CCC(=O)C=C1C[C@@H](SC(=O)CC13CC4CC(CC(C4)C1)C3)C1C2CCC2(C)C1CC[C@@]21CCC(=O)O1 (stereo partly drawn) [SPG-003]
[1]; solvent system (1) Transcutol: Ethanol: Isopropyl myristate (IPM) 2:3:5 (v:v), target 1% by weight
  solubility: good solubility
[1]; solvent system (2) Transcutol: Ethanol 3:7 (v:v), target 1% by weight
  solubility: good solubility
[1]; solvent system (3) Ethanol: Propylene Glycol 1:1 (v:v), after extensive sonication
  solubility: not soluble
[1]; solvent system (4) Ethanol:H2O 7:3 (v:v), after extensive sonication
  solubility: not soluble
[1]; solvent system (5) IPM, after extensive sonication
  solubility: not soluble
[1]; solvent system (6) Ethanol:Tween 80: Cetyl Alcohol 90:5:5 (w:w)
  solubility: good solubility
[1]; solvent system (7) CCT: Tween 80: Cetyl Alcohol 90:5:5 (w:w), after extensive sonication
  solubility: not soluble
[1]; solvent system (8) CCT: Isopropanol 1:1 (v: v)
  solubility: good solubility
[2]
  skin penetration (in words): limited amount
  skin retention in epidermis and dermis (in words): good amount
[3]; 0.1 μM
  Cell Viability: 98%
[3]; 1 μM
  Cell Viability: 99%
[3]; 3 μM
  Cell Viability: 98%
[3]; 10 μM
  Cell Viability: 98%
[4]
  IC50 at 72 h: ~50 µM
